According to US8846110B2, “Polymeric systems for the delivery of anticancer drugs” (Rexahn Pharmaceuticals, Inc., priority 2009, dated 2014):
pKd: −log10 of the molar value. One block for each compound: values may come before it.

How the values were obtained:
[1] = test system: HCT116 (colon); assay: In vitro cell proliferation (SRB) assay, HCT116; format: cell-based; settings: Homo sapiens, HCT-116; drug equivalent; 96 hours incubation; SRB method
Experimental: (§1) Cancer cell lines to determine the effect of polymer-drug conjugates were obtained from the following sources: Human MDA-MB-231 (breast), HCT116 (colon) and PANC-1 (pancreas), from the American Type Culture Collection (ATCC) (Manassas, Va.). UMRC2 (kidney) from United States National Cancer Institute (Bethesda, Md.). Cells were maintained in Dulbecco's modified Eagle's medium (“DMEM”, Invitrogen) supplemented with 10% FBS, P/S and 10 mM HEPES. All cells were incubated at 37° C. under humidified 5% CO2.
(§2) The growth inhibition assay of polymer-drug conjugates against human cancer cell lines was performed using the Sulforhodamine B (“SRB”) method (Skehan et al., J. National Cancer Institute, 82: 1107-1112 (1990)). […] After 5 minutes agitation in 10 mM Tris solution, the absorbance of each well was measured at 530 nm using Benchmark Plus Microplate reader (Bio-Rad Laboratories, Hercules, Calif.). The absorbance value provides a direct measure of the number of live cells post-treatment with copolymer-drug conjugates.
(§3) To translate the OD530 values into the number of live cells in each well, the OD530 values were compared to those on standard OD530—versus—cell number curves generated for each cell line. The percent survival was calculated using the formula: % Survival=live cell number [test]/live cell number [control]×100
(§4) The IC50 values were calculated by non-linear regression analysis.

[2] = test system: MDA-MB-231 (breast); assay: In vitro cell proliferation (SRB) assay, MDA-MB-231; format: cell-based; settings: Homo sapiens, drug equivalent, 96 hours incubation, SRB method
Experimental: as §1, §2, §3, §4

[3] = test system: Caki-1; assay: In vitro cell proliferation (SRB) assay, Caki-1; format: cell-based; settings: Homo sapiens, drug equivalent, 96 hours incubation, SRB method
[4] = molecular target: glycosylphosphatidylinositol-linked folate receptor (FR); settings: high affinity folate receptor; cited from earlier work
[5] = molecular target: T1, reduced folate carrier (Homo sapiens, UniProt P41440); settings: low affinity reduced folate carrier, cellular uptake; cited from earlier work
T1 sequence (P41440 1-591): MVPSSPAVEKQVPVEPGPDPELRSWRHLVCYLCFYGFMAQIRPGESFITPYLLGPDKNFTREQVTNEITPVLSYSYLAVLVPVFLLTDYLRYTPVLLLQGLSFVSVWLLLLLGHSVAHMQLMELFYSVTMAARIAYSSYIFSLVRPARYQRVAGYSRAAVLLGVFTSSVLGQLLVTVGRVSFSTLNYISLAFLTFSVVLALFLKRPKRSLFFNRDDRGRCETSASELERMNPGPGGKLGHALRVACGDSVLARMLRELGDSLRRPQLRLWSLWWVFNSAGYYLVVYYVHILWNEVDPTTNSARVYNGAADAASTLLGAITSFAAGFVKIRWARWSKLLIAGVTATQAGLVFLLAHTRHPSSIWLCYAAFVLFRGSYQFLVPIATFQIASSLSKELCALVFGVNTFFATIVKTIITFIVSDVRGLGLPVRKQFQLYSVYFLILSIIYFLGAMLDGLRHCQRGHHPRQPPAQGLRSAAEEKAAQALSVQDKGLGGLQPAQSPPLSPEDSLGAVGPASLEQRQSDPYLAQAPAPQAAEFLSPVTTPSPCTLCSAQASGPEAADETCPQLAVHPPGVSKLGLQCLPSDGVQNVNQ

[6] = molecular target: mucin-1 (Homo sapiens, UniProt P15941); settings: specific ligand of mucin-1; cited from earlier work
mucin-1, sequence (P15941 24-1255): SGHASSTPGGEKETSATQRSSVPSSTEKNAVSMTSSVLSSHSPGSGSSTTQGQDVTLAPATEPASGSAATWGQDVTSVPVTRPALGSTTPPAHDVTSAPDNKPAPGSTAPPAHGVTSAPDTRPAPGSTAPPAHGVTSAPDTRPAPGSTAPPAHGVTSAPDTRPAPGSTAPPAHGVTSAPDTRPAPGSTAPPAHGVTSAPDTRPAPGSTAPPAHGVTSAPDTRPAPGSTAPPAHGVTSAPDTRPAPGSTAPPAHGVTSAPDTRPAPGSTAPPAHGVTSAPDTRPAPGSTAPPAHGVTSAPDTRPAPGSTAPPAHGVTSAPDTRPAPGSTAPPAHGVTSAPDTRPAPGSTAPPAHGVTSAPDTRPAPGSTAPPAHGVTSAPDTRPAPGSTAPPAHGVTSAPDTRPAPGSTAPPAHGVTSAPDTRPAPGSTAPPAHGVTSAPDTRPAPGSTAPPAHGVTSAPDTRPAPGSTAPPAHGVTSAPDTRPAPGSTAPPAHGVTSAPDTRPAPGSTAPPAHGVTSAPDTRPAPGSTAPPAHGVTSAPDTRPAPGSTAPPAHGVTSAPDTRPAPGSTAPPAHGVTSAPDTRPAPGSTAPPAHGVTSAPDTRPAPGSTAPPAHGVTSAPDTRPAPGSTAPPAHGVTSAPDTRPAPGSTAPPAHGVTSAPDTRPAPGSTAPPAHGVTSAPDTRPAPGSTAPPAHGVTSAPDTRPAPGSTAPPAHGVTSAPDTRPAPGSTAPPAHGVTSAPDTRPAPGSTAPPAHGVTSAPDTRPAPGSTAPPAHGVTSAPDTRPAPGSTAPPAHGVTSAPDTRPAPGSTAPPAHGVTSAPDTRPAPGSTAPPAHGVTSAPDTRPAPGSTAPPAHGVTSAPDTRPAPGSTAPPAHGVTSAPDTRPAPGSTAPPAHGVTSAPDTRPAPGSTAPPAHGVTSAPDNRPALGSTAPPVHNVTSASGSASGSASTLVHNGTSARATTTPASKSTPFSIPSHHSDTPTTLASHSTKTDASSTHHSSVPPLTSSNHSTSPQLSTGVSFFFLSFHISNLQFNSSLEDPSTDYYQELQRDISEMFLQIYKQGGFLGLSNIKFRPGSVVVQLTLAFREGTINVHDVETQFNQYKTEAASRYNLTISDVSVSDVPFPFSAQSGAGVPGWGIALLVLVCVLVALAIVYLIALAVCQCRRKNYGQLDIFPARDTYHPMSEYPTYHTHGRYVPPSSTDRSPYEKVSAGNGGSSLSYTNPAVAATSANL

IC50 [1]: 0.00058 µM | IC50 [2]: 0.0015 µM
Compound: CC(=O)O[C@@]12CO[C@@H]1C[C@H](O)[C@@]1(C)C(=O)[C@H](O)C3=C(C)[C@@H](OC(=O)[C@H](O)[C@@H](NC(=O)OC(C)(C)C)c4ccccc4)C[C@@](O)([C@@H](OC(=O)c4ccccc4)[C@H]21)C3(C)C [Docetaxel, docetaxel]
IC50 [3]: 0.001 µM

Compound: Nc1nc2ncc(CNc3ccc(C(=O)N[C@@H](CCC(=O)O)C(=O)O)cc3)nc2c(=O)[nH]1 [folates, Folic acid]
pKd [4]: ~10.00 | Km [5]: ~1 µM

Compound: YCAREPPTRTFAYWG [EPPT1]
pKd [6]: 4.70
